Measured values reported in ChEMBL document CHEMBL3526000 (Drug Metab Dispos, 2012).

Assays:
[1] = molecular target: T1, UDP-glucuronosyltransferase 2B17 (Homo sapiens, UniProt O75795); test: Drug metabolism assessed as recombinant human UGT2B17 assessed as O-glucuronidation at 100 uM incubated for 60 mins by LC-MS/MS analysis; format: ADME; conditions: recombinant enzyme, 1 h
T1 sequence (O75795 whole entry): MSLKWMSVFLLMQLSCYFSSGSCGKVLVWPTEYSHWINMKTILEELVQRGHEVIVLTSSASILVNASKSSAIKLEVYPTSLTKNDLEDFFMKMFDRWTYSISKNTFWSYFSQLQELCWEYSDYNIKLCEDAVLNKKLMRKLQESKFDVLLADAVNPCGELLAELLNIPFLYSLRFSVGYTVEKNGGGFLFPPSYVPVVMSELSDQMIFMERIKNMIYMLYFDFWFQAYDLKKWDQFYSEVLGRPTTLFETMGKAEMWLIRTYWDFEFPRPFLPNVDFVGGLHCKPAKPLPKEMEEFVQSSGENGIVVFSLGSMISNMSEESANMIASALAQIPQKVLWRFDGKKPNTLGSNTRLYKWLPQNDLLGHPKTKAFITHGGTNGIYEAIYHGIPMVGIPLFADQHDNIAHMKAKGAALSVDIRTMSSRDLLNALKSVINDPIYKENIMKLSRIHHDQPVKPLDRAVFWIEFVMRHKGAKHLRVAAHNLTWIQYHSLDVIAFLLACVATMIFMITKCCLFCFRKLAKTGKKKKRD

[2] = molecular target: T2, UDP-glucuronosyltransferase 1A8 (Homo sapiens, UniProt Q9HAW9); test: Drug metabolism assessed as recombinant human UGT1A8 assessed as N-glucuronidation at 100 uM incubated for 60 mins by LC-MS/MS analysis; format: ADME; conditions: recombinant enzyme, 1 h
T2 sequence (Q9HAW9 whole entry): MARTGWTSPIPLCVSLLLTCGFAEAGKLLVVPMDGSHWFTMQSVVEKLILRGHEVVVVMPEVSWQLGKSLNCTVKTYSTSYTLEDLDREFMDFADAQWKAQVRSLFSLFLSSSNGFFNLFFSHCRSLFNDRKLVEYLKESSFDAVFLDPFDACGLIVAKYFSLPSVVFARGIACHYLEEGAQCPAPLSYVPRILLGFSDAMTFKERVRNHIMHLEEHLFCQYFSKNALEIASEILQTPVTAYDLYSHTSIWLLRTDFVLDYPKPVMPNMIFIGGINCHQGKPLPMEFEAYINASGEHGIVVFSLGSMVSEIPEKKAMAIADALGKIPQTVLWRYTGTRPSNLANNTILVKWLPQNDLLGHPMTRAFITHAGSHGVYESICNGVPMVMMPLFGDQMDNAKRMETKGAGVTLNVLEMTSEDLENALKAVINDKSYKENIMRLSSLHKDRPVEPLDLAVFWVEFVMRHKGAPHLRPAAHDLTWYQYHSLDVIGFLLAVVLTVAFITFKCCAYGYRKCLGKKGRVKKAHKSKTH

[3] = molecular target: T3, UDP-glucuronosyltransferase 2B15 (Homo sapiens, UniProt P54855); test: Drug metabolism assessed as recombinant human UGT2B15 assessed as N-glucuronidation at 100 uM incubated for 60 mins by LC-MS/MS analysis; format: ADME; conditions: recombinant enzyme, 1 h
T3 sequence (P54855 whole entry): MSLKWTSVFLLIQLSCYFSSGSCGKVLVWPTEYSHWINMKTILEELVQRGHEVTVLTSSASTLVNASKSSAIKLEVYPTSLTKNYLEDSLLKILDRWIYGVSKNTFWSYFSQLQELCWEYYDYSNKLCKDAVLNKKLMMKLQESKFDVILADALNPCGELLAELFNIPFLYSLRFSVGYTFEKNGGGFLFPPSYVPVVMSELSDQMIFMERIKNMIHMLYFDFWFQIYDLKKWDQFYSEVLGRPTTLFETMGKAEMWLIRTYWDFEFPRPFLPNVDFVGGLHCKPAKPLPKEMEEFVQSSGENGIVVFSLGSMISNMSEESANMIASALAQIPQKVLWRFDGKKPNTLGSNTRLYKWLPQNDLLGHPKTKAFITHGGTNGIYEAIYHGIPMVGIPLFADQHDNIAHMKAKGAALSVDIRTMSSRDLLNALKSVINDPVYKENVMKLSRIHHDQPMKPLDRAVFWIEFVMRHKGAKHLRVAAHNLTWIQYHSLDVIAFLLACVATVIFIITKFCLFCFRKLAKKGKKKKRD

UGT1A4 = molecular target: T4, UGT1A4 (Homo sapiens, UniProt P22310); test: Drug metabolism assessed as recombinant human UGT1A4 assessed as O-glucuronidation at 10 to 400 uM incubated for 60 mins by LC-MS/MS analysis
T4 sequence (P22310 whole entry): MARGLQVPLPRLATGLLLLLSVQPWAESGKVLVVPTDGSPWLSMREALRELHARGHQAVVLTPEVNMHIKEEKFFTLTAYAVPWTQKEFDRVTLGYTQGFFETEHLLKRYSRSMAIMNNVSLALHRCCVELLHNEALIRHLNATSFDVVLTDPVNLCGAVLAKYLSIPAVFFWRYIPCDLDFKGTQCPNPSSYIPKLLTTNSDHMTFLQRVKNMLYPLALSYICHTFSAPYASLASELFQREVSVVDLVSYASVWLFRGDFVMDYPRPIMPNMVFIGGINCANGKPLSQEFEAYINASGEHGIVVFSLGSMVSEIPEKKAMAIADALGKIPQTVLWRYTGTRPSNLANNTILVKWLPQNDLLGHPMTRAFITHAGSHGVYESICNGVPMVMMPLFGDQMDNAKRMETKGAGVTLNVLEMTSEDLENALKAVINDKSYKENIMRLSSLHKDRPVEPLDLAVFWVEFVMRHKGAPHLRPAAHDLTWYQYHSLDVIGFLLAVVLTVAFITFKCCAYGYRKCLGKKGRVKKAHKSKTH

[4] = molecular target: T5, UDP-glucuronosyltransferase 1A9 (Homo sapiens, UniProt O60656); test: Drug metabolism assessed as recombinant human UGT1A9 assessed as O-glucuronidation measured as inhibition constant at 10 to 400 uM incubated for 60 mins by LC-MS/MS analysis
T5 sequence (O60656 whole entry): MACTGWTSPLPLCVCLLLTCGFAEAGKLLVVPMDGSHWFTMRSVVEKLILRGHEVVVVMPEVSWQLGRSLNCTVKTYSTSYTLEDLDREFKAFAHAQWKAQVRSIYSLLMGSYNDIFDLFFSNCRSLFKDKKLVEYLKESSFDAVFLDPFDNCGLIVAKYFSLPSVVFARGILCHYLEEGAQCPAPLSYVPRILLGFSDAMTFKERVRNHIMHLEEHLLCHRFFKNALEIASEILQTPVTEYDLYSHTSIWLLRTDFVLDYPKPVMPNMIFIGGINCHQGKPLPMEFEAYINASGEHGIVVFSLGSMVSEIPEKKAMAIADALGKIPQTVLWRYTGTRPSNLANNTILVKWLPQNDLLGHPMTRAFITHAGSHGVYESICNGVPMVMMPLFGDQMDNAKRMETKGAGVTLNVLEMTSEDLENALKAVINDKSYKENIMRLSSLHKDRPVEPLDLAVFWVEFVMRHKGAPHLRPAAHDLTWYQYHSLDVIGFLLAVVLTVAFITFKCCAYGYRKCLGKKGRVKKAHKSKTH

Drug metabolism [1]: metabolite_not_detected
Drug metabolism [2]: metabolite_not_detected
Drug metabolism [3]: metabolite_not_detected
Km at 1 h, 400 µM (UGT1A4): 64 µM
Ki [4]: 344 µM
SMILES: O=C(CCCN1CCC(O)(c2ccc(Cl)cc2)CC1)c1ccc(F)cc1 [HALOPERIDOL]
